Laboratory results published in PubChem BioAssay (NCI).
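Briefly, cells in 96-well plates were exposed to five compound concentrations for 48 h, and endpoints were estimated by linear interpolation. TGI: total growth inhibition.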

Tests used:
Assay in all cases: growth of human tumour cells (NCI), 48 h
[1] = tested on: UACC-62 melanoma
[2] = tested on: SK-MEL-28 melanoma
[3] = tested on: CCRF-CEM leukemia
[4] = tested on: M14 melanoma
[5] = tested on: LXFL 529 NSCLC
[6] = tested on: HL-60(TB) leukemia
[7] = tested on: DMS 273 small cell lung
[8] = tested on: HOP-18 NSCLC
[9] = tested on: ACHN renal
[10] = tested on: HCT-116 colon
[11] = tested on: XF 498 CNS
[12] = tested on: SN12C renal
[13] = tested on: OVCAR-3 ovarian
[14] = tested on: MALME-3M melanoma
[15] = tested on: SNB-75 CNS
[16] = tested on: HOP-92 NSCLC
[17] = tested on: IGROV1 ovarian
[18] = tested on: OVCAR-5 ovarian
[19] = tested on: HCT-15 colon
[20] = tested on: SW-620 colon
[21] = tested on: SNB-78 CNS
[22] = tested on: K-562 leukemia
[23] = tested on: UACC-257 melanoma
[24] = tested on: COLO 205 colon
[25] = tested on: HCC-2998 colon
[26] = tested on: NCI-H522 lung
[27] = tested on: RPMI-8226 leukemia
[28] = tested on: SF-539 CNS
[29] = tested on: OVCAR-8 ovarian
[30] = tested on: DMS 114 small cell lung
[31] = tested on: SNB-19 CNS
[32] = tested on: SF-268 CNS
[33] = tested on: M19-MEL melanoma
[34] = tested on: LOX IMVI melanoma
[35] = tested on: HOP-62 NSCLC
[36] = tested on: UO-31 renal
[37] = tested on: DLD-1 colon
[38] = tested on: NCI-H23 lung
[39] = tested on: SR leukemia
[40] = tested on: KM20L2 colon
[41] = tested on: EKVX NSCLC
[42] = tested on: NCI-H460 lung
[43] = tested on: A498 renal
[44] = tested on: KM12 colon
[45] = tested on: CAKI-1 renal
[46] = tested on: 786-0 renal
[47] = tested on: TK-10 renal
[48] = tested on: A549 NSCLC
[49] = tested on: SF-295 CNS
[50] = tested on: NCI-H226 lung
[51] = tested on: SK-MEL-2 melanoma
[52] = tested on: SK-MEL-5 melanoma
[53] = tested on: SK-OV-3 ovarian
[54] = tested on: U251 CNS
[55] = tested on: RXF 393 renal
[56] = tested on: HT29 colon
[57] = tested on: OVCAR-4 ovarian
[58] = tested on: DU-145 prostate
[59] = tested on: MOLT-4 leukemia
[60] = tested on: MCF7 breast
[61] = tested on: MDA-MB-435
[62] = tested on: HS 578T breast
[63] = tested on: BT-549 breast
[64] = tested on: T-47D breast

O=C(NCc1ccccc1)c1cc2ccc(O)c(O)c2cn1
TGI [1]: 33.5 µM | TGI [2]: 30.3 µM | TGI [3]: > 100 µM | TGI [4]: 19.3 µM | TGI [5]: 30.6 µM | TGI [6]: > 100 µM | TGI [7]: 32.3 µM | TGI [8]: 44.5 µM | TGI [9]: 29.4 µM | TGI [10]: 32.1 µM | TGI [11]: 31.7 µM | TGI [12]: 31.7 µM | TGI [13]: 41.6 µM | TGI [14]: 30.4 µM | TGI [15]: 32.9 µM | TGI [16]: 33.3 µM | TGI [17]: 44.5 µM | TGI [18]: 58.3 µM | TGI [19]: > 100 µM | TGI [20]: 37.4 µM | TGI [21]: 40.6 µM | TGI [22]: > 100 µM | TGI [23]: 29.1 µM | TGI [24]: > 100 µM | TGI [25]: > 100 µM | TGI [26]: 30.9 µM | TGI [27]: > 100 µM | TGI [28]: 32.6 µM | TGI [29]: 23.9 µM | TGI [30]: 26.8 µM | TGI [31]: > 100 µM | TGI [32]: 29.7 µM | TGI [33]: 3.23 µM | TGI [34]: 16.2 µM | TGI [35]: 47.9 µM | TGI [36]: 36.5 µM | TGI [37]: 37.8 µM | TGI [38]: 25.9 µM | TGI [39]: > 100 µM | TGI [40]: > 100 µM | TGI [41]: > 100 µM | TGI [42]: 39.1 µM | TGI [43]: > 100 µM | TGI [44]: > 100 µM | TGI [45]: 33.6 µM | TGI [46]: 33.1 µM | TGI [47]: > 100 µM | TGI [48]: > 100 µM | TGI [49]: 31.5 µM | TGI [50]: > 100 µM | TGI [51]: 25.4 µM | TGI [52]: 23.3 µM | TGI [53]: > 100 µM | TGI [54]: 52.8 µM | TGI [55]: 30.5 µM | TGI [56]: > 100 µM | TGI [57]: 30.3 µM

O=C(O)COc1ccc(C(=O)/C(SS/C(C(=O)c2ccc(OCC(=O)O)c(Cl)c2Cl)=C2\C=C(c3ccc(F)cc3)SS2)=C2/C=C(c3ccc(F)cc3)SS2)c(Cl)c1Cl
TGI [1]: 23.9 µM | TGI [2]: 38.8 µM | TGI [3]: 18.1 µM | TGI [4]: 54.8 µM | TGI [5]: 13.6 µM | TGI [6]: 6.03 µM | TGI [7]: 27.9 µM | TGI [8]: 43.6 µM | TGI [58]: > 100 µM | TGI [9]: 56 µM | TGI [10]: 25.6 µM | TGI [11]: 27 µM | TGI [12]: 38.7 µM | TGI [13]: 20.7 µM | TGI [14]: 77.3 µM | TGI [15]: 27.4 µM | TGI [59]: 31.2 µM | TGI [16]: 15.4 µM | TGI [17]: 41.7 µM | TGI [18]: 74.7 µM | TGI [19]: 28.3 µM | TGI [20]: 36.3 µM | TGI [21]: 43.1 µM | TGI [22]: 32.6 µM | TGI [23]: 68.8 µM | TGI [24]: 25 µM | TGI [25]: > 100 µM | TGI [26]: 8.44 µM | TGI [27]: 31.5 µM | TGI [28]: 26.9 µM | TGI [29]: 55.8 µM | TGI [30]: 12.7 µM | TGI [31]: 53.7 µM | TGI [32]: 23.1 µM | TGI [33]: 44.6 µM | TGI [34]: 12.9 µM | TGI [60]: > 100 µM | TGI [35]: > 84.8 µM | TGI [36]: 36.4 µM | TGI [37]: > 53.7 µM | TGI [38]: 33.7 µM | TGI [39]: 13.4 µM | TGI [61]: > 100 µM | TGI [40]: > 95.8 µM | TGI [41]: > 81.4 µM | TGI [42]: 49.1 µM | TGI [62]: 19 µM | TGI [43]: 77.5 µM | TGI [63]: 71.5 µM | TGI [44]: 32.6 µM | TGI [45]: > 77.9 µM | TGI [46]: > 57 µM | TGI [47]: 99.2 µM | TGI [48]: > 93.4 µM | TGI [49]: 69.8 µM | TGI [50]: 40.4 µM | TGI [64]: 31.3 µM | TGI [51]: 34.7 µM | TGI [52]: 51.5 µM | TGI [53]: > 88.7 µM | TGI [54]: 24.7 µM | TGI [56]: 70.6 µM | TGI [57]: 40.3 µM
